From ChEMBL document CHEMBL1155546, “Rapid synthesis of an array of trisubstituted urea-based soluble epoxide hydrolase inhibitors facilitated by a novel solid-phase method” (Bioorg Med Chem Lett, 2010)

Columns and labels:
[1] = Half life in human liver microsome; assay type: ADME; settings: liver microsomes
Cytochrome P450 2J2 = molecular target: T1, Cytochrome P450 2J2 (Homo sapiens, UniProt P51589); assay: Inhibition of CYP2J2
T1 sequence (P51589 whole entry): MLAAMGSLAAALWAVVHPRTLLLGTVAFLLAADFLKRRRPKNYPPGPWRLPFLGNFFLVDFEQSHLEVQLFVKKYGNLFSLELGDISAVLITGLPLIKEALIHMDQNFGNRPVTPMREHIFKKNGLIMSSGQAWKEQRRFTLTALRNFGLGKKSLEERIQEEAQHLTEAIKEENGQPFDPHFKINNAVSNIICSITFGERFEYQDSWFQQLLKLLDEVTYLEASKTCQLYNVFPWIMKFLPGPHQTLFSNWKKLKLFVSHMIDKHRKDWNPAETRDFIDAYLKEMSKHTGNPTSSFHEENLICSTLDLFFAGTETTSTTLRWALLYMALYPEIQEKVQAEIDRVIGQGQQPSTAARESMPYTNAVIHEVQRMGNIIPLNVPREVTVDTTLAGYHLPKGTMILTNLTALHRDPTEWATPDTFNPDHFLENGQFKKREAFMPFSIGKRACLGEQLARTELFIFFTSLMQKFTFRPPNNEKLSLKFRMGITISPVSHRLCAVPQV

Cytochrome P450 2C9 = Cytochrome P450 2C9 (Homo sapiens, UniProt P11712); assay: Inhibition of CYP2C9; assay type: ADME
[2] = molecular target: T2, Bifunctional epoxide hydrolase 2 (Homo sapiens, UniProt P34913); assay: Inhibition of human soluble epoxide hydrolase
T2 sequence (P34913 whole entry): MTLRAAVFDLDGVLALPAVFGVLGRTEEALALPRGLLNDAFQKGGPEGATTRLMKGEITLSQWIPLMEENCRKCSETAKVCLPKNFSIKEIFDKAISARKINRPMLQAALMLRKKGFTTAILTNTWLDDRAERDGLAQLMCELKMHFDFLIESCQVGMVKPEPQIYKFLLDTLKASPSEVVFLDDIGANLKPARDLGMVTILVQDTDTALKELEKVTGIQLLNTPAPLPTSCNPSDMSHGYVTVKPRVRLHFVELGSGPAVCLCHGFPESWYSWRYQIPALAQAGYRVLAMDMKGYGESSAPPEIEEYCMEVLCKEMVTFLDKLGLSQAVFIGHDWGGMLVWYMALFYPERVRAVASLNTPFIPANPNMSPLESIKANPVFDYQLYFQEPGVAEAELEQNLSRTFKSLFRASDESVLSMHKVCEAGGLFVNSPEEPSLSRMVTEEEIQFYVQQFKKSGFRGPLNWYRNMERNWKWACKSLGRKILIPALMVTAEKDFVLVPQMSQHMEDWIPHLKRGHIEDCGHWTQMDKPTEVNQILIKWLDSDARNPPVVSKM

[3] = Half life in mouse liver microsome; assay type: ADME; settings: liver microsomes
[4] = molecular target: T2, Bifunctional epoxide hydrolase 2; assay: Inhibition of human soluble epoxide hydrolase assessed as [2-3H]trans-1,3-diphenyl propylene oxide hydrolysis by cellular assay

Chain of Cytochrome P450 2C9 (P11712 whole entry): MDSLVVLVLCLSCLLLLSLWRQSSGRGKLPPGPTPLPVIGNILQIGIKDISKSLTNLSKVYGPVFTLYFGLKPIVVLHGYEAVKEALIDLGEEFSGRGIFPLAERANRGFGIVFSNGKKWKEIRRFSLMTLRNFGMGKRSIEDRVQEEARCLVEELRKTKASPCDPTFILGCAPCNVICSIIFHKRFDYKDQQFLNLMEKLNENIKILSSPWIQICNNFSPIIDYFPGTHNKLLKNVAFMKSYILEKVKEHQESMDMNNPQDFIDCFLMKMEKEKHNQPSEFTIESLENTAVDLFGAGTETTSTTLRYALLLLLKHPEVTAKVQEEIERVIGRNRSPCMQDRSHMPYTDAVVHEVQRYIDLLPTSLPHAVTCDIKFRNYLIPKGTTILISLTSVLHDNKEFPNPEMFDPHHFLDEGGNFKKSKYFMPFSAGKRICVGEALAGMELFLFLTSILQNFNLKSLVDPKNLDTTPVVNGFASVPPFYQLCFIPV

| Compound | half-life [1] [min] | IC50 (Cytochrome P450 2J2) [nM] | IC50 (Cytochrome P450 2C9) [nM] | IC50 [2] [nM] | half-life [3] [min] | IC50 [4] [nM] |
| --- | --- | --- | --- | --- | --- | --- |
| O=C(NCc1ccccc1OC(F)(F)F)N1CCC(Oc2ccncc2)CC1 | 34 | 10000 | 800 | 14 | 42 |  |
| O=C(NCCC(c1ccc(F)cc1)c1ccc(F)cc1)N1CCC(c2cnccn2)C1 (stereo not drawn) | 2 |  | 8100 | 3 | 2 | 4 |
| O=C(NCc1ccccc1OC(F)(F)F)N1CCC(c2ccncc2)C1 (stereo not drawn) | 23 | 10000 | 300 | 7 | 42 | 76 |
| O=C(NCc1ccccc1OC(F)(F)F)N1CCC(Oc2ncccn2)CC1 | 54 | 2000 | 10200 | 4 | 10 | 40 |
| O=C(NCc1ccc(Cl)cc1Cl)N1CCC(Oc2ccncc2)CC1 | 42 | 2700 | 100 | 9 | 25 | 22 |
| O=C(NCCC(c1ccc(F)cc1)c1ccc(F)cc1)N1CCC(Oc2cnccn2)CC1 | 7 |  | 2900 | 1 | 2 | 13 |
